Laboratory results: patent publication US20250034186A1, “ANTIVIRAL COMPOUNDS” (priority 2020, published 2025)

Legend:
Format in all cases: cell-based
HCV replicon 1B = assay: HCV Rep 1B EC50; details: for EC50: Hepatitis C virus, 72 h, HCV replicon cells, 3 days
Protocol: Compounds were serially diluted in ten steps of 1:3 dilutions in 384-well plates. All serial dilutions were performed in four replicates per compound within the same 384-well plate. […] To each well of a black polystyrene 384-well plate (Greiner Bio-one, Monroe, NC), 90 μL of cell culture medium (without Geneticin) containing 2000 suspended HCV replicon cells was added with a Biotek μFlow workstation. For compound transfer into cell culture plates, 0.4 μL of compound solution from the compound serial dilution plate was transferred to the cell culture plate on a Biomek FX workstation. The DMSO concentration in the final assay wells was 0.44%. The plates were incubated for 3 days at 37° C. with 5% CO2 and 85% humidity. The HCV replicon assay was a multiplex assay, able to assess both cytotoxicity and antireplicon activity from the same well. The CC50 assay was performed first. The media in the 384-well cell culture plate was aspirated, and the wells were washed four times with 100 μL of PBS each, using a Biotek ELX405 plate washer. A volume of 50 μL of a solution containing 400 nM calcein AM (Anaspec, Fremont, CA) in 1×PBS was added to each well of the plate with a Biotek μFlow workstation. The plate was incubated for 30 min at room temperature before the fluorescence signal (excitation 490 nm, emission 520 nm) was measured with a Perkin-Elmer Envision plate reader. The EC50 assay was performed in the same wells as the CC50 assay. The calcein-PBS solution in the 384-well cell culture plate was aspirated with a Biotek ELX405 plate washer. A volume of 20 μL of Dual-Glo luciferase buffer (Promega, Madison, WI) was added to each well of the plate with a Biotek μFlow Workstation. The plate was incubated for 10 min at room temperature. […] The plate was then incubated at room temperature for 10 min before the luminescence signal was measured with a Perkin-Elmer Envision Plate Reader.

in vitro = details: human, read-out: CC50 GALPC3
Protocol: Compounds were tested in a high-throughput 384-well assay format for cytotoxicity in galactose-adapted PC3 cells (human prostate cancer cell line). Cells were diluted in media (DMEM (11966), 10% FBS, 1% NEAA, 0.2% Galactose, 1% Pyruvate, 1% Glutamax, 1% PSG) to 16.6K cells/mL and plated at 90 uL/well into 384 well poly-D-lysine coated assay plates and placed in an incubator at 37° C. and 5% CO2. Compounds were serially diluted (1:3) in 100% DMSO in 384-well plates in quadruplicate. DMSO and 2 mM Puromycin were included as negative and positive controls respectively. 24 hours after cell plating, a 384 channel pipettor was used to transfer 0.4 uL from the compound plate to the assay plate. Assay plates are returned to the incubator. After 5 days, assay plates are washed with 80 uL/well of PBS before addition of 20 μL of Cell Titer Glo. Assay plates are read on the Envision plate reader. […] CC50 values were calculated in Accord (on-line tool) using a one-site dose-response model to generate sigmoidal curve fits.

PHH cytotoxicity assay = details: human, fresh primary hepatocytes (PHH), daily replacement
Protocol: Three-fold serial dilutions of the compound of Formula I and compounds 1, 2 and 6 were prepared in duplicate in 96-well plates starting at a concentration of 50 or 100 μM. Fresh human hepatocytes were ordered in a 96-well plate format from BioIVT (Baltimore, Maryland, Cat #F/M91565) with a Matrigel overlay or Invitrogen (Durham, North Carolina, Cat #HMFY96) with a Geltrex overlay. Donor profiles were limited to 4-65-year old with minimal alcohol consumption. PHH cells were allowed to recover 4-24 hours in complete medium with added supplement supplied by the vendor at 37° C. in a 5% CO2 incubator with 90% humidity before treated with compounds. Serial-diluted compounds and complete medium were replaced (130 μL/well) daily for 5 days, with final amount of DMSO equal to 0.5%. On Day 5, medium was removed from the assay plates and cell viability was determined by the addition of 100 μL Cell-Titer Glo viability reagents (Promega, Madison, WI, Cat #G7573) added to each well. Following 5-10 minutes incubation at room temperature, luminescence signal was quantified on a Victor Luminescence plate reader (Perkin-Elmer, Waltham, MA).

[1] = system: Dengue 2, New Guinea strain (NGC); assay: DENV-2 moDC EC50; details: Dengue virus, Dendritic cell; human monocyte-derived dendritic cells, 48 hours, qPCR
Protocol: Human monocyte-derived dendritic cells (moDCs) were derived from CD14+ monocytes (AllCells) cultured in Human Mo-DC Differentiation medium containing GM-CSF and IL-4 (Miltenyi Biotec). On day 7, moDCs were harvested by mechanical disruption, washed and suspended in serum-free RPMI. moDCs were infected with Vero-derived Dengue 2, New Guinea strain (NGC) at a MOI=0.1 for two hours in serum-free RPMI with gentle agitation at 37° C. Cells were washed and resuspended in 10% serum-containing RPMI (Gibco, supplemented with sodium pyruvate, NEAA, Penicillin-Streptomycin). 10^5 cells were plated in triplicate in 96-well plates with compounds dispensed at graded doses (Hewlett-Packard D300 Digital Dispenser). All wells were normalized to 0.25% DMSO. At 48 hours, cells were washed with 1×PBS and all supernatants removed. Total RNA was extracted using RNEasy 96 plates (Qiagen) and used to generate first-strand cDNA using XLT cDNA 5× Supermix (QuantaBio). cDNA was used as a template in a Taqman qPCR duplex reaction specific to DENV2 viral and GAPDH gene expression. EC50 values were determined using Prism Graphpad software, with normalization to a positive control and no compound negative control wells.

Row | SMILES | EC50 (HCV replicon 1B) [nM] | CC50 at 5 days (in vitro) [µM] | CC50 at 5 days (PHH cytotoxicity assay) [µM] | EC50 [1] [µM] | times more potent relative to compound 2, HCV Rep 1B (HCV replicon 1B; EC50 ratio vs compound 2)
1 | CCC(CC)COC(=O)[C@H](C)NP(=O)(OC[C@@]1(C#N)O[C@@H](c2ccc3c(N)ncnn23)[C@H](O)[C@@H]1O)Oc1ccccc1 (some centres unmarked) [Compound 2, reference compound] | 2780 | – | – | – | –
2 | CCC(CC)COC(=O)[C@H](C)N[P@](=O)(OC[C@@]1(C#N)O[C@@H](c2ccc3c(N)ncnn23)[C@H](O)[C@@H]1O)Oc1ccccc1 [Compound 6, 2-ethylbutyl ((S)-(((2R,3S,4R,5S)-5-(4-aminopyrrolo[2,1-f][1,2,4]triazin-7-yl)-2-cyano-3,4-dihydroxytetrahydrofuran-2-yl)methoxy)(phenoxy)phosphoryl)alaninate] | – | > 83.5 | 14.1 | – | –
3 | C[C@H](N[P@](=O)(OC[C@@]1(C#N)O[C@@H](c2ccc3c(N)ncnn23)[C@H](O)[C@@H]1O)Oc1ccccc1)C(=O)OC1CCCCC1 [Formula I, cyclohexyl ((S)-(((2R,3S,4R,5S)-5-(4-aminopyrrolo[2,1-f][1,2,4]triazin-7-yl)-2-cyano-3,4-dihydroxytetrahydrofuran-2-yl)methoxy)(phenoxy)phosphoryl)-L-alaninate] | 793 | > 44.4 | 21.2 | > 6.19 | about 3.5 times
